Read-outs that look alike come from different tables or passages of the source. *1 amine or outer side, *2 acyl side, *3 side chain or, on linkers, in order; H or OH if unused. Where a SMILES comes first, the peptide text is derived from it. Bridges are numbered along the chain shown (N, C = ends). Roman numbers before positions name the chains, in order. [ ]: non-standard residue; d: D form. Actinocin(9to1) = Cc1c2oc3c(C)ccc(C(=O)[*:1])c3nc-2c(C(=O)[*:2])c(N)c1=O; NMeV = CN[C@H](C(=O)O)C(C)C; Sar = CNCC(=O)O
How the values were obtained:
[1] = test system: P388/S (adriamycin sensitive) leukemia; assay: Antitumor activity in vivo, P388/S leukemia; parameters: species or system mice; conditions: for tumor free survivors/total on day 60: P388/S, at optimal dose, ip days 1, 5, 9; for effectiveness relative to AMD with respect to %ILS and long-time survivors: P388 lymphocytic leukemia in mice
Procedure: The analogues were tested for their antitumor activities in P388 lymphocytic leukemia in male BDF1 mice.
^a Male CDF1 mic inoculated ip: 10^6 cells inoculum, day 0.
Drugs administered in 10% dimethyl sulfoxidesaline on days 1, 5, and 9. %
ILS = percent increase in life span. Fractions in parentheses = tumor fre
survivors/total on day 60^b. P388/S (adriamycin sensitive) and
P388/ADR (adriamycin resistant) tumors were evaluated in the same
experiment with agent listed.

[2] = Maximum tolerated dose (LD10) in tumor-free male mice; conditions: ip days 1, 5, 9; deaths observed during 21 days; from plot of log dose vs percent mortality
Procedure: The analogues were also tested in tumor-free male mice for their LD10 values (Table XIV). The animals were given a broad range of doses (ip) on days 1, 5, and 9. The maximum tolerated doses of AMD and the analogues that caused death in only 10% of the tested animals in 21 days (i.e., LD10) were recorded as MTD. […] On the basis of these values, the calculated therapeutic index values of SAD is 96, and those of RAD I, II, and III are 60, 67, and 70, respectively.
control in P388 tumor bearing mice. ^c MTD (maximum tolerated dose) i
the lethal dose (milligram/kilogram) for 10% normal BDF1 male mice
days). Values were calculated from a plot of log dose vs percent

rat liver microsomes [3] = assay: Metabolism in rat liver microsomes (M); type: in vitro ADME; conditions: 6 h, NADPH-generating system
Procedure: In this respect, actinomycin is only about 30% as efficient as its synthetic analogues, RAD III (3c) and SAD (2) (Table II). Metabolic Studies, Metabolism in the Presence of Tumor Cell Homogenates and Rat Liver Microsomes. The cell homogenates (P388 cells were sonicated and were incubated at 37° C. with analogues for 16 h. Rat microsomes were harvested from phenobarbital-induced rats by standard procedure. Incubations were carried out for 6 h in the presence of a NADPH-generating system, i.e., glucose-6-phosphate dehydrogenase and glucose 6-phosphate. The metabolites and their water-soluble conjugates were isolated and identified with the use of tritiated analogues.
It was observed that the RAD analogues are metabolized to SAD (2) with the loss of oxazole ring. […] In tumor cells, a larger fraction of SAD (2) (30-50%) remains unmetabolized. SAD is found to form glucuronide and sulfate conjugates only in tumor cells. […] Isolation of SAD from RAD analogues is a very important step, because SAD is found to be a potent and effective antitumor agent in several murine tumor systems (Tables V-XII).

[4] = test system: CX-1 human colon adenocarcinoma; assay: Chemotherapy of human colon CX-1 tumor heterotransplanted in nude mice; type: in vivo, human tumor in athymic mice; conditions: for % T/C, optimal: TST 15, observed day 22; for response of CX-1 tumor to treatment (in words): three iv treatments weekly from 15th day of transplant, at the doses tested
Procedure: Tables XI and XII show the effectiveness of SAD (2) and RAD (3b and 3c) against CX-1 human colon adenocarcinoma heterotransplanted into athymic mice, with three iv treatments with drugs on a weekly schedule starting on the 15th day of tumor transplant. AMD and the analogues were tested at doses of 45 and 60 ug/kg.
^a -, % T/C high than 50%; ±, % T/C close to 50%; +, % T/C from 50
to 35%; ++, % T/C from 35% to 20%; +++, % T/C lower than 20%; ++++,
regression of the tumor to a volume lower than 10% of the volume at the
start of treatment. ^b Statistically significant as evaluated by the
^a Intravenous treatment, once a week for three weeks; eight mice per
group. ^b TST; number of days between tumor transplant and starting o
treatment. ^c Numbers in parentheses; day of observation after the […]

rat liver microsomes [5] = assay: Stimulation of NADPH oxidation by rat hepatic microsomal incubations; type: biochemical; conditions: for percentage stimulation of NADPH oxidation: (drug-stimulated rate - basal rate)/basal rate × 100; for NADPH oxidation: measured at 340 nm, average ± standard error of triplicate
Excerpt: It has been reported that the quinone imino chromophore of actinomycin can be subjected to enzyme-catalyzed single-electron reduction to give free-radical species that generate superoxides by reacting with molecular oxygen. The process needs a reductive cofactor NADPH, which is oxidized to NADP^+ during the process, giving a change in the absorbance at 340 nm that can be measured spectrophotometerically. Alternatively, the superoxides generated during the process may be allowed to react with epinephrine to produce adrenochrome, a chromophore with strong absorbance at 480 nm that can be measured spectrophotmetrically.
The superoxide formations were studied via NADPH oxidation catalyzed by AMD analogues in the presence of rat liver microsomes. […] The process of adrenochrome formation is inhibited by superoxide dismutase, confirming that superoxide is indeed generated in these systems.
^a The percentage stimulation = (drugstimulated rate basal rate)/basa
rate × 100 and is shown in parentheses. NADPH oxidation was measure
at 340 nm and adrenochrome formation was measured at 489 nm; the values
are average ± standard errors of triplicate analyses. ^b SOD,

[6] = Toxic deaths in nontumored mice treated in parallel (colon 38 experiment); type: in vivo
Excerpt: × 100; in parenthesis, number of over 100 day survivors/number of
mice in a group of nontumored mice treated in parallel with the
tumorbearing mice and observed for 100 days.

P388 cells = assay: Inhibition of nucleic acid synthesis in P388 cells in vitro; type: cell-based, murine
Excerpt: In addition to the P388 cells, this inhibitory activity in human carcinoma HT-29 grown in tissue culture has been also examined. The values of the drug concentration producing 50% inhibition of the incorporation of [^3 H]-thymidine and [^14 C] uridine into nucleic acid macromolecules are presented in Table V. These values are taken as estimates of the inhibition of DNA and RNA synthesis. […] Furthermore, the inhibitory activities of these analogues are three-to fivefold higher than AMD; the order of potency of the analogues for their inhibition of DNA synthesis is:
DNA and RNA synthesis in P388 and HT-29 cells lines was monitored in the presence of drugs, and the rates of inhibition of their synthesis were estimated from the amounts of [2-^14 C]-uridine and [^3 H]-thymidine into RNA and DNA, respectively, according to the methods described previously.
^a Human colon carcinoma in culture, IC50, drug concentration
producing a 50% inhibition of incorporation of precursor [^3 H]
thymidine into DNA and [^14 C] uridine into RNA in the cell lines,
isolated as acid preciptable materials. Data are average of replicate

[7] = test system: P388/ADR (adriamycin resistant) leukemia; assay: Antitumor activity in vivo, P388/ADR leukemia; parameters: species or system mice; conditions: at optimal dose, ip days 1, 5, 9
Procedure: The analogues were also tested against P388/ADR murine leukemia following the standard protocol (Table VI).
ILS = percent increase in life span.

[8] = dose 45 μg/kg iv once a week for three weeks
[9] = dose 60 μg/kg iv once a week for three weeks
[10] = dose 0.15 mg/kg iv days 1, 5, 9
[11] = dose 0.30 mg/kg iv days 1, 5, 9
[12] = dose 0.60 mg/kg iv days 1, 5, 9
[13] = [3H]thymidine incorporation, read-out: IC50, DNA synth
[14] = [14C]uridine incorporation, read-out: IC50, RNA synth
[15] = dose 1.20 mg/kg iv days 1, 5, 9

| SMILES | tumor free survivors/total on day 60 [1] | MTD (maximum tolerated dose), lethal dose for 10% of normal mice (LD10) [2] | percent unconverted drug (rat liver microsomes [3]) | % T/C, optimal [4, 8] | % T/C, optimal [4, 9] | response of CX-1 tumor to treatment (in words) [4] | percentage stimulation of NADPH oxidation (rat liver microsomes [5]) | NADPH oxidation (rat liver microsomes [5]) | toxic deaths [6, 10] | toxic deaths [6, 11] | toxic deaths [6, 12] | IC50 (P388 cells; [13]) | IC50 (P388 cells; [14]) | effectiveness relative to AMD with respect to %ILS and long-time survivors [1] | tumor free survivors/total on day 60 [7] | toxic deaths [6, 15] | percent isolated: tissue bound (rat liver microsomes [3]) | percent isolated: unidentified metabolite (rat liver microsomes [3]) | percent metabolite isolated: SAD-glucuronide and/or sulfate (rat liver microsomes [3]) | percent metabolite isolated: protein conjugates (rat liver microsomes [3]) | also measured |
| --- | --- | --- | --- | --- | --- | --- | --- | --- | --- | --- | --- | --- | --- | --- | --- | --- | --- | --- | --- | --- | --- |
| Cc1c2oc3c(C)ccc(C(=O)N[C@@H]4C(=O)N[C@H](C(C)C)C(=O)N5CCC[C@H]5C(=O)N(C)CC(=O)N(C)[C@@H](C(C)C)C(=O)O[C@@H]4C)c3nc-2c(C(=O)N[C@@H]2C(=O)N[C@H](C(C)C)C(=O)N3CCC[C@H]3C(=O)N(C)CC(=O)N(C)[C@@H](C(C)C)C(=O)O[C@@H]2C)c(N)c1=O [AMD (1), Actinomycin D] (I: T[dV]P[Sar][NMeV] / II: T[dV]P[Sar][NMeV]; ester I:1-I:C, II:1-II:C; linker I:N-II:N via Actinocin(9to1)) | 1/8 | 0.25 milligram/kilogram | 100% | 34% | 36% | ineffective | 9.9% | 10.01 ± 0.90 nmol/min per mg of protein | 1/9 | 0/9 | 4/9 | 1.1 ± 0.09 µM | 0.05 ± 0.005 µM |  |  |  |  |  |  |  | toxic deaths ([6]; dose 0.075 mg/kg iv days 1, 5, 9): 0/9; toxic deaths ([6]; dose 0.45 mg/kg iv days 1, 5, 9): 1/9 |
| Cc1c2oc3c(C)c4oc(-c5ccccc5)nc4c(C(=O)N[C@@H]4C(=O)N[C@H](C(C)C)C(=O)N5CCC[C@H]5C(=O)N(C)CC(=O)N(C)[C@@H](C(C)C)C(=O)O[C@@H]4C)c3nc-2c(C(=O)N[C@@H]2C(=O)N[C@H](C(C)C)C(=O)N3CCC[C@H]3C(=O)N(C)CC(=O)N(C)[C@@H](C(C)C)C(=O)O[C@@H]2C)c(N)c1=O [RAD II (3b)] | 4/8 | 2.00 milligram/kilogram |  | 48% | 24% | marginal but positive activity | 610% | 65.0 ± 5.95 nmol/min per mg of protein | 1/9 | 0/9 | 0/9 | 0.78 ± 0.066 µM | 0.07 ± 0.005 µM | two-to threefold | 1/8 | 4/9 |  |  |  |  |  |
| Cc1c2oc3c(C)c4oc(CC(=O)NCCCCN)nc4c(C(=O)N[C@@H]4C(=O)N[C@H](C(C)C)C(=O)N5CCC[C@H]5C(=O)N(C)CC(=O)N(C)[C@@H](C(C)C)C(=O)O[C@@H]4C)c3nc-2c(C(=O)N[C@@H]2C(=O)N[C@H](C(C)C)C(=O)N3CCC[C@H]3C(=O)N(C)CC(=O)N(C)[C@@H](C(C)C)C(=O)O[C@@H]2C)c(N)c1=O [RAD III (3c)] | 6/8 | 3.50 milligram/kilogram | 10.0 ± 1.0% | 5% | 3% | responded remarkably well to the treatment of RAD III at doses of 45 and 60 ug/kg | 812% | 87.1 ± 7.1 nmol/min per mg of protein |  | 0/9 | 4/9 | 0.43 ± 0.038 µM | 0.055 ± 0.007 µM | two-to threefold | 2/8 | 2/9 | 5.0 ± 0.5% | 8.0 ± 1.0% | nil | 10.0 ± 10% | P388/S optimal dose ([1]; ip on days 1, 5, and 9): 1.0 mg/kg; percent metabolite isolated: SAD (rat liver microsomes [3]): 65.0 ± 5.5% |
| Cc1c2oc3c(C)c(O)c(N)c(C(=O)N[C@@H]4C(=O)N[C@H](C(C)C)C(=O)N5CCC[C@H]5C(=O)N(C)CC(=O)N(C)[C@@H](C(C)C)C(=O)O[C@@H]4C)c3nc-2c(C(=O)N[C@@H]2C(=O)N[C@H](C(C)C)C(=O)N3CCC[C@H]3C(=O)N(C)CC(=O)N(C)[C@@H](C(C)C)C(=O)O[C@@H]2C)c(N)c1=O [SAD (2)] | 4/8 | 2.40 milligram/kilogram | 50.0 ± 10.5% |  |  | responded fairly well to SAD treatment but at 60 ug/kg only | 606% | 64.3 ± 2.11 nmol/min per mg of protein |  | 0/9 | 0/9 | 0.012 ± 0.004 µM | 0.015 µM | two-to threefold | 3/8 | 4/9 | 15.0 ± 3.0% | 15.0 ± 4.0% | nil | 20.0 ± 5.0% |  |

Reference: patent US4966962A, “Reverse analogue of actinomycin D” (Trustees of Boston University, priority 1988, dated 1990)
